In patent publication US7199152B2, “TNF-α production inhibitor comprising kavalactone as an active ingredient” (Meiji Dairies Corporation, priority 2000, dated 2007):

Assays:
[1] = system: TNF-α production in BALB/3T3 cells stimulated by okadaic acid; experiment: Inhibition of TNF-α production (in vitro) in BALB/3T3 cells stimulated by okadaic acid, ELISA; format: cell-based; details: for TNF-α production relative to the TNF-α production of the control: okadaic acid 0.2 μM, 24 hours, control = 100%; for TNF-α production inhibitory effect, overall assessment (in words): BALB/3T3 cells, okadaic acid stimulation
Procedure: In response to stimulation by okadaic acid (9,10-deepithio-9,10-didehydroacanthifolicin), BALB/3T3 cells produce TNF-α. The compounds of the present invention were investigated in terms of inhibitory effect on TNF-α production.
An MEM medium (product of Nissui) containing 10% fetal calf serum (product of Biocell Laboratory) was injected into 12-well multiplates (product of Corning), and BALB/3T3 cells were disseminated at 2×10^5 cells/well. The cells were cultured in a carbon dioxide gas incubator (5% Co2, humidified, 37° C.). Subsequently, KAVA-1, KAVA-2, KAVA-3, KAVA-4, or KAVA-5 was added to the wells at a concentration shown in FIG. 1, and the cells were cultured for one hour. No KAVA compound was added to the control wells. After completion of culturing, okadaic acid (carcinogenisis promoter isolated from Halichondria okadai) was added to each well at a final concentration of 0.2 μM, and culturing was performed for 24 hours. After completion of this culturing, the TNF-α concentration of the supernatant of each well was measured by means of ELISA system (product of Genzyme). In FIG. 1, the amount of TNF-α release corresponding to each compound concentration is represented by a percent concentration based on the amount of TNF-α release measured for the control (100%).

[2] = system: TNF-α production in serum induced by LPS; experiment: TNF-α inhibitory effect (in vivo), LPS-induced serum TNF-α in mice, ELISA; design: species or system BALB/c mice; details: 40 mg/kg intraperitoneally, LPS 50 μg/mouse i.p. immediately after, serum 90 minutes after LPS
Procedure: Male BALB/cAnNCrj mice of 6 weeks age were purchased from Japan Charles River, and those having body weights of 30 g or lower were tested.
Seven mice groups, each group consisting of six mice, were provided; i.e., 1) a group to which distilled water for injection was administered (non-treated group) (N); 2) a group to which a 0.3% carboxymethyl cellulose-Na (0.3% CMC-Na) suspension was administered (control group) (C); and 3) five groups to which KAVA-1, KAVA-2, KAVA-3, KAVA-4, and KAVA-5, respectively, were administered (0.3% CMC-Na was used as a solvent).
Each of KAVA-1, KAVA-2, KAVA-3, KAVA-4, and KAVA-5 was prepared to a drug liquid of 40 mg/10 ml. The liquid was intraperitoneally administered at 10 ml/kg (dose: 40 mg/kg), and 0.3% CMC-Na was intraperitoneally administered at 10 ml/kg to each corresponding group. Lipo-polysaccharide (LPS) (product of SIGMA) was dissolved in physiological saline, and the solution was intraperitoneally administered to each mouse in an amount of 0.2 ml (50 μg/mouse) immediately after administration of the drug liquid.
After 90 minutes from administration of LPS, blood was collected from the eye socket, and the collected sample was allowed to stand for one hour at room temperature. Subsequently, the sample was centrifuged at 11,000 rpm for five minutes, and the serum was collected. […]

| SMILES | TNF-α production relative to the TNF-α production of the control ([1]; 100 μM compound) | inhibitory effect on TNF-α production (in words) ([1]; concentrations of 50 μM or less) | inhibition of serum TNF-α production compared with the control group (C) (in words) [2] | TNF-α production relative to the TNF-α production of the control ([1]; 10 μM compound) | TNF-α production relative to the TNF-α production of the control ([1]; 50 μM compound) | TNF-α production inhibitory effect, overall assessment (in words) [1] |
| --- | --- | --- | --- | --- | --- | --- |
| COC1=CC(=O)O[C@@H](CCc2ccccc2)C1 [KAVA-4, (+)-Dihydrokavain] | approximately 60% | no inhibitory effect | significantly (p<0.5) inhibited TNF-α production |  |  |  |
| COc1cc(/C=C/c2ccccc2)oc(=O)c1 [KAVA-3, Desmethoxyyangonin] | approximately 0% |  |  | approximately 60% | approximately 22% | strong TNF-A production inhibitory effect |
| COC1=CC(=O)O[C@@H](/C=C/c2ccccc2)C1 [KAVA-5, (+)-Kavain] | approximately 39% |  |  |  |  |  |
| COC1=CC(=O)O[C@@H](/C=C/c2ccc3c(c2)OCO3)C1 [KAVA-1, (+)-Methysticin] | approximately 39% |  | almost comparable to that exerted by KAVA-2 |  |  |  |
| COc1ccc(/C=C/c2cc(OC)cc(=O)o2)cc1 [KAVA-2, Yangonin] | approximately 22% |  |  |  |  | strong TNF-A production inhibitory effect |
